Laboratory results: patent publication US12553889B2, “Small molecules targeting the intrinsically disordered structural ensemble of α-synuclein protect against diverse α-synuclein mediated dysfunctions” (The Regents of the University of California, priority 2019, dated 2026)
“Also recorded” adds a separate entry of the source.

Columns and labels:
[1] = test system: BACE, GST and CAII control proteins; assay: Biacore 4000 SPR binding specificity (pb-index, control proteins); conditions: 100 μM
Experimental: The binding specificity of 576755 and its analogues was assessed by testing their ability to bind to αSyn versus a set of control proteins: Beta-Site Amyloid Precursor Protein Cleaving Enzyme 1 (BACE), Glutathione-S transferase (GST) and Carbonic Anhydrase (CAII). The binding data was merged into a pb-index, as discussed in more detail below. Compounds were tested at 100 μM using the Biacore 4000 instrument as described below. […] The percent RMax (% Rmax) for αSyn and the average % Rmax for the control proteins (pb-index) were calculated described below. […] The remaining 576755-analogues show no reaction with the control proteins and thus have improved specificity of binding.
Preparation of off-target protein sensor chips. […]
Surface Plasmon Resonance Measurements. […] Time-dependent binding curves were monitored simultaneously. […] The time-dependent binding curves were monitored simultaneously. […]
SPR Data Evaluation. The obtained data were quality controlled and evaluated using the manufacturers Evaluation Software as described previously (Regnström, K. et al. (2013)). Data were exported into Microsoft Excel and further analyzed as follows: The binding levels of running buffer injections were used to calculate the background noise level (>three-fold σ). All binding level data was calculated by subtracting the background noise level and adjustment to molecular weight (% Rmax). […]

αSyn = αSyn (Homo sapiens, UniProt P37840); assay: seeded αSyn fibrillization assay (αSyn seeds added at initiation); assay type: biochemical; parameters: made in house; host or cells: E. coli BL21(DE3), pET-21d
Experimental: Fibrillization assays. Prior to each aggregation assay, purified αSyn at 5 mg/mL was treated with 6M guanidine and dialyzed 36 hours in a 3500 MW cutoff Slide-A-lyzer with three changes of 20 mM sodium phosphate and 100 mM NaCl pH 7.4 buffer. αSyn was centrifuged at 130,000 g for 40 minutes in a Beckman Ultracentrifuge to remove seeding species and supernatant used for assays. For initial testing, 60 mM compound in DMSO was diluted to 300 μM in 0.5% DMSO and controls contained equivalent DMSO concentrations. Assay samples contained 20 μM Thioflavin T, filtered through a 0.45 μm Acrodisc filter prior to each assay, 70 μM αSyn in 20 mM sodium phosphate and 100 mM NaCl pH 7.4. One teflon bead, (0.125″ PTFE, Grade 2 polished) was placed in each well of a 96 well black with clear bottom assay plate (Corning) in a total volume of 500 μL. The plate was sealed with Mylar and parafilm, placed at 37° C. in a Tecan F200Pro Plate Reader and shaken at an amplitude of 6 mm for 120 hours continuously except for a brief time during reading of the plate. Thioflavin T fluorescence was detected by excitation at 440 nm and reading emissions at 485 nm each 60 minutes throughout the assay. […] Data were analyzed in Excel using XL-fit sigmoidal model #600 and when normalized, comparing fluorescence values at 50 hours for compounds as a percentage of DMSO control.

[2] = test system: H4 SL1 & SL2 neuroglioma cell line; assay: Cell model of αSyn aggregate formation (phospho-S129 αSyn staining, ARRAYSCAN); assay type: cell-based; conditions: 100 μM and 150 μM, 45 hours
Experimental: Next, 583854 was tested for impact on αSyn aggregation in a cell model of αSyn aggregate formation. Split Gaussian luciferase tagged αSyn overexpression was induced in the H4 SL1 & SL2 neuroglioma cell line by tetracycline addition (Moussaud, S., et al. (2015)). αSyn aggregates were visualized by staining fixed (4% PFA) cells with the S129 phosphorylated αSyn specific antibody 11A5 at 1 μg/ml (Anderson, J. P. et al. (2006)) using a green fluorescently labelled secondary antibody. Nuclei were stained with a blue Hoescht nuclear dye. Uninduced cells contained no phospho-αSyn staining and induced cells contain abundant phospho-αSyn aggregates. The cells were imaged for nuclei (blue, diffuse circular staining as in the Uninduced sample)) and phospho-αSyn (green punctate staining) on an ARRAYSCAN automated imaging platform (FIG. 23A), αSyn aggregates were quantitated using the ARRAYSCAN spot-detector algorithm. Cells were induced for αSyn by tetracycline addition and 583854 was added 3 to 4 hours later. At 48 hours after tetracycline addition the cells are washed in PBS and […] with 4% PFA.

time at which activity is first seen in seeded fibrillization (αSyn; seeded fibrillization, time in the incubation) [h]	Compound	binding to control proteins (pb-index versus % Rmax of αSyn binding) [1]	impact on seeded fibrillization (αSyn; preformed αSyn fibrils/protofibrils added at initiation)	impact on αSyn aggregates (phospho-αSyn) [2]
≤ 2	CNC(=O)c1cc(O)ccc1N [Compound 576755, 2-amino-5-hydroxy-N-methylbenzamide]	some non-specific binding to the control proteins	blocks fibrillization; also recorded: anti-aggregation activity	
	CNC(=O)c1cc(O)ccc1O [Compound 583854, 2,5-dihydroxy-N-methylbenzamide]			reduced αSyn aggregates
